Assay results: patent US20260365622A1, “CRYSTALLINE CARBAZOLE DERIVATIVE AND METHODS OF MAKING THEREOF” (Raziel Therapeutics Ltd., priority 2022, published 2026)

Tests used:
Format in all cases: physicochemical
[1] = Accelerated stability tests of crystalline Compound A Form 1 (Table 5); conditions: 7 days; for Purity after storage: HPLC
Method: (§1) XRPD analysis was carried out on a PANalytical X'pert Pro with PIXcel detector (128 channels), scanning the samples between 3 and 35° […]. The material was gently ground (where required) to release any agglomerates and loaded onto a multi-well plate with Kapton or Mylar polymer film to support the sample. The multi-well plate was then placed into the diffractometer and analyzed using Cu K radiation (α1 λ=1.54060 Å; α2 λ=1.54443 Å; β λ=1.39225 Å; α1:α2 ratio=0.5) running in transmission mode (step size 0.0130° 2θ, step time 18.87 s) using 40 kV/40 mA generator settings. Data were visualized and images generated using the HighScore Plus 4.7 desktop application (PANalytical, 2017).
Crystalline Compound A (Form 1) was not changed after storage at room temperature for 7 days, storage at 40 °C/75% RH for 7 days, or storage at 80 °C for 7 days. Purity was determined by HPLC analysis.

[2] = Long-term stability tests of crystalline Compound A Form 1 (Table 6); conditions: for Purity after storage: HPLC
Method: as §1
Crystalline Compound A (Form 1) was not changed after storage at 25 °C/60% RH for 36 months or storage at 40 °C/75% RH for 6 months. Purity was determined by HPLC analysis.

[3] = Karl Fischer (KF) coulometric titration; conditions: in duplicate
Method: Water content of crystalline Compound A was determined using KF Coulometric Titration by either direct addition or liquid extraction.
10-20 mg of crystalline Compound A was weighed into a vial. The solid was then manually introduced into the titration cell of a Mettler Toledo C30 Compact Titrator. The vial was back-weighed after the addition of the solid and the weight of the added solid entered on the instrument. Titration was initiated once the sample had fully dissolved in the cell. The water content was calculated automatically by the instrument as a percentage and the data printed. The analysis was carried out in duplicate.
10-20 mg of crystalline Compound A was weighed into a vial, 10-15 mL of the Coulomat was extracted from the cell of a Mettler Toledo C30 Compact Titrator and added to the vial containing the sample. The solid was dissolved by shaking manually or using ultrasonic bath. When complete dissolution was achieved, the solution was injected back into the cell titrator and the weight of the sample added was entered on the instrument. The water content was calculated automatically by the instrument as a percentage and the data printed. The analysis was carried out in duplicate.

[4] = Variable humidity X-ray powder diffraction (VH-XRPD); conditions: desorption phase, 90% RH to 20% RH; starting from Form 2
Method: A known mass of 5-(3,6-dibromo-9H-carbazol-9-yl)-N,N,N-trimethylpentan-1-aminium chloride Form 2 (Compound A Form 2) was analyzed by variable humidity X-ray powder diffraction (VH-XRPD) on a Philips X'Pert Pro Multipurpose diffractometer quipped with a humidity chamber. The samples were scanned between 4 and 35.99° 2θ using Cu K radiation (α1 λ=1.54060 Å; α2=1.54443 Å; β=1.39225 Å; α1:α2 ratio=0.5) running in Bragg-Brentano geometry (step size 0.008° 2θ) using 40 kV/40 mA generator settings. Measurements were performed between 7-90% RH and XRPD scans were collected at each humidity step. The VH-XRPD analysis was conducted an absorption phase between ambient and 90% RH, a desorption phase between 90% RH and 7% RH, and a second absorption phase between 20% and 40% RH.

[5] = Conversion of Compound A Form 4 on standing in humid conditions; conditions: standing at 25 °C and 40 °C and at >30% RH
[6] = 25 °C/60% RH (closed container), 24 months

SMILES: C[N+](C)(C)CCCCCn1c2ccc(Br)cc2c2cc(Br)ccc21.[Cl-] [Compound A Form 1, 5-(3,6-dibromo-9H-carbazol-9-yl)-N,N,N-trimethylpentan-1-aminium chloride]
- XRPD after storage ([1]; 40 °C/75% RH (open vial)): Unchanged
- Purity after storage ([1]; 40 °C/75% RH (open vial)): 99.93%
- Change after storage ([1]; 40 °C/75% RH): not changed
- XRPD after storage ([1]; 80 °C (closed vial)): Unchanged
- Purity after storage ([1]; 80 °C (closed vial)): 99.93%
- Change after storage ([1]; 80 °C): not changed
- XRPD after storage ([1]; Room Temperature (open vial)): Unchanged
- Purity after storage ([1]; Room Temperature (open vial)): 99.93%
- Change after storage ([1]; room temperature): not changed
- XRPD after storage ([2]; 25 °C/60% RH (closed container), 3 months): Unchanged
- Purity after storage ([2]; 25 °C/60% RH (closed container), 3 months, 131040 min): 99.7%
- XRPD after storage ([2]; 25 °C/60% RH (closed container), 6 months): Unchanged
- Purity after storage ([2]; 25 °C/60% RH (closed container), 6 months, 263520 min): 99.7%
- XRPD after storage ([2]; 25 °C/60% RH (closed container), 12 months): Unchanged
- Purity after storage ([2]; 25 °C/60% RH (closed container), 12 months, 525600 min): 99.7%
- XRPD after storage [2, 6]: Unchanged
- Purity after storage [2, 6]: 99.7%
- XRPD after storage ([2]; 25 °C/60% RH (closed container), 36 months): Unchanged
- Purity after storage ([2]; 25 °C/60% RH (closed container), 36 months, 1.5768e+06 min): 99.7%
- Change after storage ([2]; 25 °C/60% RH, 36 months): not changed
- XRPD after storage ([2]; 40 °C/75% RH (closed container), 1 month): Unchanged
- Purity after storage ([2]; 40 °C/75% RH (closed container), 1 month, 43200 min): 99.7%
- XRPD after storage ([2]; 40 °C/75% RH (closed container), 3 months): Unchanged
- Purity after storage ([2]; 40 °C/75% RH (closed container), 3 months, 131040 min): 99.7%
- XRPD after storage ([2]; 40 °C/75% RH (closed container), 6 months): Unchanged
- Purity after storage ([2]; 40 °C/75% RH (closed container), 6 months, 263520 min): 99.8%
- Change after storage ([2]; 40 °C/75% RH, 6 months): not changed
- Water content ([3]; listed as Form 1): 4.38% w/w %

SMILES: C[N+](C)(C)CCCCCn1c2ccc(Br)cc2c2cc(Br)ccc21.[Cl-] [Compound A Form 2, 5-(3,6-dibromo-9H-carbazol-9-yl)-N,N,N-trimethylpentan-1-aminium chloride]
- Crystalline form observed [4]: Crystalline Form 1 of Compound A was observed during the desorption phase between 90% RH and 20% RH

SMILES: C[N+](C)(C)CCCCCn1c2ccc(Br)cc2c2cc(Br)ccc21.[Cl-] [Compound A Form 3, 5-(3,6-dibromo-9H-carbazol-9-yl)-N,N,N-trimethylpentan-1-aminium chloride]
- Water content ([3]; listed as Form 3): 5.3% w/w %

SMILES: C[N+](C)(C)CCCCCn1c2ccc(Br)cc2c2cc(Br)ccc21.[Cl-] [Compound A Form 4, 5-(3,6-dibromo-9H-carbazol-9-yl)-N,N,N-trimethylpentan-1-aminium chloride]
- Water content ([3]; listed as Form 4): 1% w/w %
- Conversion of crystalline form [5]: converted to crystalline Form 1 of Compound A
